According to US12453708B2, “Aminonaphthoquinone compounds for treatment and/or prevention of fibrosis diseases” (CALGENT BIOTECHNOLOGY CO., LTD., priority 2015, dated 2025):

Tests used:
[1] = system: TGF-β-induced CTGF expression in WI-38 cells; assay: TGF-β-induced CTGF expression in WI-38 cells (Western blot); type: cell-based, human; settings: WI-38 lung fibroblasts, 0.3, 1, 3 or 10 μM for 30 min before and during 2 h TGF-β (10 ng/mL)
Procedure: (§1) FIGS. 1 (A) and (B) show the effect of L056 on TGF-β-induced CTGF expression in WI-38 cells. WI-38 lung fibroblasts were incubated with different concentrations of L056 (0.3, 1, 3 or 10 μM) for 30 min before and during incubation for 2 h with TGF-β (10 ng/mL). […] (A), Western blot plot; (B), Quantitative assay of Western blot. WI-38 cells, a normal human embryonic lung fibroblast cell line, were obtained from American Type Culture Collection (Manassas, VA). Cells were grown in MEM nutrient mixture, containing 10% FCS, 2 mM L-glutamine, 0.1 mM NEAA, 1 mM sodium pyruvate, 50 U/ml penicillin G, and 100 µg/ml streptomycin, in a humidified 37° C. incubator with 5% CO2 Cells were used between passages 18 and 30 for all experiments. After reaching confluence, cells were seeded onto 6-cm dishes for immunoblotting. Western blot analyses were performed as described previously (Chen B C, Chang Y S, Kang J C, Hsu M J, Sheu J R, Chen T L, et al. Peptidoglycan induces nuclear factor-kappaB activation and cyclooxygenase-2 expression via Ras, Raf-1, and ERK in RAW 264.7 macrophages. J Biol Chem 2004; 279:20889-97). […] The immunoreactivity was detected using enhanced chemiluminescence (ECL) following the manufacturer's instructions. Quantitative data were obtained using a computing densitometer with scientific imaging systems (Kodak, Rochester, NY). […]

[2] = system: CCl4-induced liver fibrosis in mice; assay: CCl4-induced liver fibrosis in mice (therapeutic model); type: in vivo, C57BL/6JNarl mice; settings: for fibrosis score, Mean ± SEM: day 43
Procedure: (A) sirius red stain; (B), the inhibition of MPTOL056 on CCl4-induced liver fibrosis. […] C57BL/6JNarl mice (8 weeks) were treated with CCl4 (1 μl/μg/BW, q.w.) or PBS (1 μl/μg/BW, q.w.) by i.p. injection for 6 weeks. MPTOL056 (25, 50 and 100 mg/kg/day, q.d.) and silymarin (200 mg/kg/day, q.d.) were administered orally to CCl4-injected mice from 2 weeks to 6 weeks. On day 43, the mice were sacrificed, and the α-SMA analysis of liver tissue was performed by IHC staining (original magnification, x100) (see FIG. 11). […]

[3] = system: thrombin-induced CTGF expression in WI-38 cells; assay: thrombin-induced CTGF expression in WI-38 cells (Western blot); type: cell-based, human; settings: WI-38 lung fibroblasts, 0.3, 1, 3 or 10 μM for 30 min before and during 2 h thrombin (1 U/ml)
Procedure: as §1, with “FIGS. 3” for “FIGS. 1”, “on thrombin-induced” for “on TGF-β-induced”, “with thrombin (1 U/ml).” for “with TGF-β (10 ng/mL).”

[4] = CCl4 mice, 25 mg (mg/kg/day, q.d., oral, weeks 2 to 6)
[5] = CCl4 mice, 50 mg (mg/kg/day, q.d., oral, weeks 2 to 6)
[6] = CCl4 mice, 100 mg (mg/kg/day, q.d., oral, weeks 2 to 6)

Structure (SMILES): O=C(Nc1ccncc1)c1ccc(CNC2=C(Cl)C(=O)c3ccccc3C2=O)cc1 [Example L056, 4-(((3-chloro-1,4-dioxo-1,4-dihydronaphthalen-2-yl)amino)methyl)-N-(pyridin-4-yl)benzamide]
- TGF-β-induced CTGF production [1]: significantly inhibited
- Efficacy % (reduction of fibrosis score) [2, 4]: 45.00%
- fibrosis score, Mean ± SEM [2, 4]: 2.40 ± 0.53
- Efficacy % (reduction of fibrosis score) [2, 5]: 46.67%
- fibrosis score, Mean ± SEM [2, 5]: 2.35 ± 0.25
- Efficacy % (reduction of fibrosis score) [2, 6]: 68.33%
- fibrosis score, Mean ± SEM [2, 6]: 1.70 ± 0.18
- efficacy in inhibition compared with silymarin ([2]; CCl4 mice, silymarin 200 mg/kg/day, FIG. 10(B)): higher than silymarin
- inhibition of CCl4-induced liver fibrosis (in words) ([2]; mice, 25, 50 and 100 mg/kg/day oral, FIG. 10(B)): dose-dependent
- thrombin-induced CTGF production/expression [3]: significantly inhibited
- thrombin-induced CTGF production/expression ([3]; listed as MPTOL0560): inhibited
